Laboratory results: ChEMBL document CHEMBL1909046, “DrugMatrix in vitro pharmacology data”

Legend:
Cytochrome P450 1A2 = target: T1, Cytochrome P450 1A2 (Homo sapiens, UniProt P05177); details: bti-tn-5b1-4; further: in other assays of this panel Not Active means under 50% inhibition at 10 µM
T1 sequence (P05177 whole entry): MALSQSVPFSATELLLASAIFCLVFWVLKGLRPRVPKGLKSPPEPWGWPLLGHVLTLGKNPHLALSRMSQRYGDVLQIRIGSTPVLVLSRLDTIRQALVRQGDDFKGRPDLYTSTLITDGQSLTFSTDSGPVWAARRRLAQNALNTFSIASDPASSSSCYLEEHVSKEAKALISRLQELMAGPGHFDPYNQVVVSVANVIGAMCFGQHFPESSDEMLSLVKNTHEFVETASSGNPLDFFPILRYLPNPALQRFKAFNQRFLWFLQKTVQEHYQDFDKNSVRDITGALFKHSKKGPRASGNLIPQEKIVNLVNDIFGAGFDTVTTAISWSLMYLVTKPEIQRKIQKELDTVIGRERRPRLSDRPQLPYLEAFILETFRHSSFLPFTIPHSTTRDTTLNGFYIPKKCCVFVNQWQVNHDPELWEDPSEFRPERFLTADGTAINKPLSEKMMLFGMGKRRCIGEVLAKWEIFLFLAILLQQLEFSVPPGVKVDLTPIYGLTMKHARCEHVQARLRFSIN

D(4) dopamine receptor = target: T2, D(4) dopamine receptor (Homo sapiens, UniProt P21917); experiment: DRUGMATRIX: Dopamine D4.2 radioligand binding (ligand: [3H] Spiperone); format: cell membranes, CHO-K1, Membrane; details: cho-k1; Not Active = under 50% inhibition at 10 µM
T2 sequence (P21917 whole entry): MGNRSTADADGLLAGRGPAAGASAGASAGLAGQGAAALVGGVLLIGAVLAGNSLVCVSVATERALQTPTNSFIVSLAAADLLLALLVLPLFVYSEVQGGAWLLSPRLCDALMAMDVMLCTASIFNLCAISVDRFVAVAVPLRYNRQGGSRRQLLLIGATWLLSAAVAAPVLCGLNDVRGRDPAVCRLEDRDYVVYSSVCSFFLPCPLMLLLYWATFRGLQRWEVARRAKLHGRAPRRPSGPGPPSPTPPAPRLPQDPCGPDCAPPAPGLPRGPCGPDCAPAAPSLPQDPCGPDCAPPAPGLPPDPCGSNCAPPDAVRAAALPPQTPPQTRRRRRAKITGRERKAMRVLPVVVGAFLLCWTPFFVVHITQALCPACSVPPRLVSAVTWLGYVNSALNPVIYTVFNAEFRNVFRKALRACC

[1] = DRUGMATRIX: Phorbol Ester radioligand binding (ligand: [3H] PDBu); format: cell membranes, Mus musculus, ICR, Brain, Membrane; details: Not Active = under 50% inhibition at 10 µM
[2] = target: C-C chemokine receptor type 2 (Homo sapiens, UniProt P41597); format: cell membranes, Membrane; details: cho-k1; further: in other assays of this panel Not Active means under 50% inhibition at 10 µM
[3] = target: Prostaglandin G/H synthase 1 (Homo sapiens, UniProt P23219); experiment: biochemical; format: tissue-based, Platelet; details: platelet;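 further: inhibition of COX-1 enzyme activity, with arachidonic acid supplied as substrate; in other assays of this panel Not Active means under 50% inhibition at 10 µM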
[4] = DRUGMATRIX: Potassium Channel [KATP] radioligand binding (ligand: [3H] Glyburide); format: cell membranes, Membrane; details: hit-t15; Not Active = under 50% inhibition at 10 µM
[5] = DRUGMATRIX: Phosphodiesterase PDE4 enzyme inhibition (substrate: [3H]cAMP + cAMP); details: u-937; Not Active = under 50% inhibition at 10 µM

Prostaglandin G/H synthase 1, sequence (P23219 whole entry): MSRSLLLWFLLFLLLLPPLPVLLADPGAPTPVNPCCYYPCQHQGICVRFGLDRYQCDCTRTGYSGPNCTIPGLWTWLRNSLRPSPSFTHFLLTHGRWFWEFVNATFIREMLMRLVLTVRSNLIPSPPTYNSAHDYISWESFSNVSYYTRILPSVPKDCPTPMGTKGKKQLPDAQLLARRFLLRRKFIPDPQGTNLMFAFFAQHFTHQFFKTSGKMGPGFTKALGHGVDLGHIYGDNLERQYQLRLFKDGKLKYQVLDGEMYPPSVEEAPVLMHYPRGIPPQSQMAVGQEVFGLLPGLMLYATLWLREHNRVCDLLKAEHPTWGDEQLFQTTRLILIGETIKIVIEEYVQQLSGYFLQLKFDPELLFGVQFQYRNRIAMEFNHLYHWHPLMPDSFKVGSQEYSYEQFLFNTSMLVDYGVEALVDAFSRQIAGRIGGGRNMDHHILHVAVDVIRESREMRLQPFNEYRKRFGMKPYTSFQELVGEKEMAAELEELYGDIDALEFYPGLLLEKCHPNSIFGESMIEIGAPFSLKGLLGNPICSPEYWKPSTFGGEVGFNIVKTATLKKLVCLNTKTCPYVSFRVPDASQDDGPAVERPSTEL
C-C chemokine receptor type 2, sequence (P41597 whole entry): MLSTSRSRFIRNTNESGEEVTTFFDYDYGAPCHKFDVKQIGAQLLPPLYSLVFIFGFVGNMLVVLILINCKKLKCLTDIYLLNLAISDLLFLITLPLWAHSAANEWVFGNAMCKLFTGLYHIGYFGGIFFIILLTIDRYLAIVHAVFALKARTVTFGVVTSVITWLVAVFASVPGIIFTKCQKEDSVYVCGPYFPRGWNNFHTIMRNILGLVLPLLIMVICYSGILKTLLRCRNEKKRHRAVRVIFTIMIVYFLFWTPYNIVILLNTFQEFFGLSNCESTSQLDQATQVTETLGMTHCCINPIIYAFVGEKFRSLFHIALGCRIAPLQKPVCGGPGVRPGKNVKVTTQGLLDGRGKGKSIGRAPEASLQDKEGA

NNCCc1ccccc1 [PHENELZINE]
Not Active: IC50 (Cytochrome P450 1A2) | Ki (Cytochrome P450 1A2) | IC50 (D(4) dopamine receptor) | IC50 [1] | Ki [1] | IC50 [2] | IC50 [3] | IC50 [4] | Ki [4] | IC50 [5] | Ki [5]

CCc1ccc(CCOc2ccc(CC3SC(=O)NC3=O)cc2)nc1 (stereo unspecified) [PIOGLITAZONE]
Not Active: IC50 (Cytochrome P450 1A2) | Ki (Cytochrome P450 1A2) | IC50 (D(4) dopamine receptor) | IC50 [1] | Ki [1] | IC50 [2] | IC50 [3] | IC50 [4] | Ki [4] | IC50 [5] | Ki [5]

CCCNC(C)C(=O)Nc1ccccc1C (stereo unspecified) [PRILOCAINE]
Not Active: IC50 (Cytochrome P450 1A2) | Ki (Cytochrome P450 1A2) | IC50 (D(4) dopamine receptor) | IC50 [1] | Ki [1] | IC50 [2] | IC50 [3] | IC50 [4] | Ki [4] | IC50 [5] | Ki [5]

CCN(CC)CCNC(=O)c1ccc(N)cc1 [PROCAINAMIDE]
Not Active: IC50 (Cytochrome P450 1A2) | Ki (Cytochrome P450 1A2) | IC50 (D(4) dopamine receptor) | IC50 [1] | Ki [1] | IC50 [2] | IC50 [3] | IC50 [4] | Ki [4] | IC50 [5] | Ki [5]

CCN(CC)CCCC(C)Nc1c2ccc(Cl)cc2nc2ccc(OC)cc12 (stereo unspecified) [QUINACRINE]
Not Active: IC50 (Cytochrome P450 1A2) | Ki (Cytochrome P450 1A2) | IC50 (D(4) dopamine receptor) | IC50 [1] | Ki [1] | IC50 [2] | IC50 [3] | IC50 [4] | Ki [4] | IC50 [5] | Ki [5]

C[C@]12C=CC(=O)C=C1CC[C@H]1[C@@H]3C[C@@H](O)[C@](O)(C(=O)CO)[C@@]3(C)C[C@H](O)[C@@]12F [TRIAMCINOLONE]
Not Active: IC50 (Cytochrome P450 1A2) | Ki (Cytochrome P450 1A2) | IC50 (D(4) dopamine receptor) | IC50 [1] | Ki [1] | IC50 [2] | IC50 [3] | IC50 [4] | Ki [4] | IC50 [5] | Ki [5]

CC[C@]1(O)C[C@@H]2CN(CCc3c([nH]c4ccccc34)[C@@](C(=O)OC)(c3cc4c(cc3OC)N(C)[C@H]3[C@@](O)(C(N)=O)[C@H](O)[C@]5(CC)C=CCN6CC[C@]43[C@@H]65)C2)C1 [VINDESINE]
Not Active: IC50 (Cytochrome P450 1A2) | Ki (Cytochrome P450 1A2) | IC50 (D(4) dopamine receptor) | IC50 [1] | Ki [1] | IC50 [2] | IC50 [3] | IC50 [4] | Ki [4] | IC50 [5] | Ki [5]

CCN(C(C)=O)c1cccc(-c2ccnc3c(C#N)cnn23)c1 [ZALEPLON]
Not Active: IC50 (Cytochrome P450 1A2) | Ki (Cytochrome P450 1A2) | IC50 (D(4) dopamine receptor) | IC50 [1] | Ki [1] | IC50 [2] | IC50 [3] | IC50 [4] | Ki [4] | IC50 [5] | Ki [5]

COBALTOUS CHLORIDE
Not Active: IC50 (Cytochrome P450 1A2) | Ki (Cytochrome P450 1A2) | IC50 (D(4) dopamine receptor) | Ki (D(4) dopamine receptor) | IC50 [1] | Ki [1] | IC50 [2] | Ki [2] | IC50 [3] | Ki [3] | IC50 [4] | Ki [4] | IC50 [5] | Ki [5]

COLISTIN
Not Active: IC50 (Cytochrome P450 1A2) | Ki (Cytochrome P450 1A2) | IC50 (D(4) dopamine receptor) | Ki (D(4) dopamine receptor) | IC50 [1] | Ki [1] | IC50 [2] | Ki [2] | IC50 [3] | Ki [3] | IC50 [4] | Ki [4] | IC50 [5] | Ki [5]
